According to patent publication US7064120B2, “Tricyclic pyridyl carboxamides and derivatives thereof tocolytic oxytocin receptor antagonists” (Wyeth, priority 2001, dated 2006):

Target: T1, human vasopressin V2 receptor subtype (Homo sapiens, UniProt P30518)
T1 construct: host or cells: CHO cells, stably transfected (pZeoSV vector)
Experiment: Vasopressin binding in CHO cell membranes expressing human vasopressin V2 subtype receptors ([3H]arginine vasopressin radioligand binding)
Conditions: 100 nM
Procedure: Vasopressin Binding in Chinese Hamster Ovary Cell Membranes Expressing Human Vasopressin V2 Subtype Receptors
Chinese Hamster Ovary (CHO) cells stably transfected with the human V2 subtype receptors were obtained from M. Thibonnier, Case Western Reserve University School of Medicine, Cleveland, Ohio.
The trypsin is removed by aspiration and the cells dislodged by tapping. Cell Culture medium (e.g. 30 mL for 1:30 split) is immediately added and mixed well to inactivate trypsin. 1 mL of detached cells is added to new culture flasks containing fresh Cell Culture medium (e.g. into 25 mL per T-150 flask), and mixed gently. The cells are incubated at 37° C. in 5% CO2. The medium is changed at 3 to 4 day interval (or as appropriate). […] All steps are done under sterile conditions.
The cells are washed twice gently with Hank's Balanced Salt solution (e.g. use 10 mL per T-150 flask). […] The contents are transferred to centrifuge tubes (50 mL) kept in ice bath. All subsequent steps are done at 4° C. The tubes are centrifuged at 300×g for 15 min (1380 rpm on SORVAL, Model RT6000D, using the rotor for 50 mL tubes). The supernatant is discarded and the cells suspended in homogenizing buffer(10 mM Tris-HCl containing 0.25 M sucrose and 1 mM EDTA, pH 7.4) ensuring that the volume of the buffer is about ten times the volume of the cell pellet. The cells are pooled into a centrifuge tube (50 mL) and homogenized with Polytron at setting 6 for 10 sec. The homogenate is transferred into a Potter-Elvjehm homogenizer and homogenized with 3 strokes. The homogenate is centrifuged at 1500×g for 60 min at 4° C. (3100 rpm using SORVAL, model RT6000D, using the rotor for 50 mL tubes). The pellet is discarded. The supernatant is centrifuged at 100,000×g for 60 min. at 4° C. (Beckman L8-80M ultracentrifuge; spin at 37,500 rpm with rotor type 70 Ti for 50 mL tubes; 38,000 rpm with type 80Ti for 15 mL tubes; or 35,800 rpm with rotor type 45Ti). The supernantant is discarded and the pellet suspended in 3 to 4 mL of Tris buffer (50 mM TRIS-HCl, pH 7.4). The protein content is estimated by the Bradford or Lowry method. The volume of the membrane suspension is adjusted with the membrane buffer (50 mM Tris-HCl containing 0.1% BSA and 0.1 mM PMSF) to give 3.0 mg/mL (or as appropriate) of protein. The membranes are aliquoted and stored at −70° C.
In wells of a 96-well format microtiter plate, is added 90, 110 or 130 μL (to make up a final volume of 200 μL) of assay buffer containing 50 mM of Tris-HCl (pH 7.4), […], 1 mg % aprotinin, 1 mg % leupeptin, 2 mg % 1,10-phenanthroline, 10 mg % trypsin inhibitor, and 0.1 mM PMSF. The inhibitors are added on the day of the experiment. The components are mixed at room temperature, and then kept in ice bath following adjustment of the pH to 7.4. […] For vasopressin and other peptide ligands 20 μL of 50% DMSO is added and the assay buffer volume is adjusted accordingly. To each well is added 50 μL of frozen membrane suspension thawed immediately prior to use and diluted in assay buffer to the required concentration (equivalent to 25 to 50 μg of protein/well as needed). 20 μL of 8 nM [^3H]arginine vasopressin ligand in the assay buffer, prepared just before use is added and incubated at room temperature for 60 min. shaking the plate on a mechanical shaker for the first 15 min. The incubation is stopped by rapid filtration of the plate contents followed by wash with ice-cold buffer (50 mM Tris-HCl, pH 7.4) using a cell harvester (Tomtek and Printed filtermat-B filter paper). The filter paper is thoroughly dried (7–12 min. in a microwave oven) and impregnated with MeltiLex B/H melt-on scintillation wax sheets and the radioactivity counted in a betaplate scintillation counter.
Binding data is either reported as percent inhibition at a certain concentration or if an IC50 was calculated, as a nanomolar concentration.

T1 sequence (P30518 whole entry): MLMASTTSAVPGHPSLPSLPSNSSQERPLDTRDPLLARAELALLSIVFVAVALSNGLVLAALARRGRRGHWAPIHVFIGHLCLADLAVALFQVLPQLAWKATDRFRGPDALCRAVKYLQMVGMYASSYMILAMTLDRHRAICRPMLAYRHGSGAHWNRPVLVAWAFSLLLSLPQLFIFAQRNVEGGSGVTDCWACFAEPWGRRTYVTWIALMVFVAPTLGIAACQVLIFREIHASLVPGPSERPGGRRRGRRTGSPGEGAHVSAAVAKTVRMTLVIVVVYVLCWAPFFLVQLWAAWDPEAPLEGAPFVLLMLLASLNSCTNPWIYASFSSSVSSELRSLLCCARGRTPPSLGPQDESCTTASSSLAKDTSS

Row | Compound | inhibition at 0.1 µM | V2 % inhibition @ 100 nM
1 | COc1cc(C(=O)N2Cc3ccc(C(=O)NCc4cccnc4)n3Cc3ccccc32)ccc1-c1cccc2ccccc12 [Example 44, 10-[3-Methoxy-4-(naphthalen-1-yl)benzoyl]-N-(3-pyridinylmethyl)-10,11-dihydro-5H-pyrrolo[2,1-c][1,4]benzodiazepine-3-carboxamide] | 31% | –
2 | COc1ccccc1-c1ccc(C(=O)N2Cc3ccc(C(=O)NCc4cccnc4)n3Cc3ccccc32)cc1OC [Example 45, 10-[(2,2′-Dimethoxy-[1,1′-biphenyl]-4-yl)carbonyl]-N-(3-pyridinylmethyl)-10,11-dihydro-5H-pyrrolo[2,1-c][1,4]benzodiazepine-3-carboxamide] | 19% | –
3 | COc1cccc(-c2ccc(C(=O)N3Cc4ccc(C(=O)NCc5cccnc5)n4Cc4ccccc43)cc2OC)c1 [Example 46, 10-[(2,3′-Dimethoxy-[1,1′-biphenyl]-4-yl)carbonyl]-N-(3-pyridinylmethyl)-10,11-dihydro-5H-pyrrolo[2,1-c][1,4]benzodiazepine-3-carboxamide] | 8% | –
4 | O=C(NCc1cccnc1)c1ccc2n1Cc1ccccc1N(C(=O)c1ccc(-c3cccc4ccccc34)cc1Cl)C2 [Example 47, 10-[2-Chloro-4-(naphthalen-1-yl)benzoyl]-N-(3-pyridinylmethyl)-10,11-dihydro-5H-pyrrolo[2,1-c][1,4]benzodiazepine-3-carboxamide] | 6% | –
5 | Cc1cc(C(=O)N2Cc3ccc(C(=O)NCc4cccnc4)n3Cc3ccccc32)ccc1-c1ccccc1C(F)(F)F [Example 48, 10-{[2-Methyl-2′-trifluoromethyl-[1,1′-biphenyl]-4-yl]carbonyl}-N-(3-pyridinylmethyl)-10,11-dihydro-5H-pyrrolo[2,1-c][1,4]benzodiazepine-3-carboxamide] | 9% | –
6 | COc1ccccc1-c1ccc(C(=O)N2Cc3ccc(C(=O)NCCc4ccccn4)n3Cc3ccccc32)cc1C [Example 49, 10-[(2′-Methoxy-2-methyl-[1,1′-biphenyl]-4-yl)carbonyl]-N-[2-(2-pyridinyl)ethyl]-10,11-dihydro-5H-pyrrolo[2,1-c][1,4]benzodiazepine-3-carboxamide] | 26% | –
7 | Cc1ccccc1-c1ccc(C(=O)N2Cc3ccc(C(=O)NCCc4ccccn4)n3Cc3ccccc32)cc1C [Example 50, 10-[(2,2′-Dimethyl-[1,1′-biphenyl]-4-yl)carbonyl]-N-[2-(2-pyridinyl)ethyl]-10,11-dihydro-5H-pyrrolo[2,1-c][1,4]benzodiazepine-3-carboxamide] | 17% | –
8 | Cc1cc(C(=O)N2Cc3ccc(C(=O)NCCc4ccccn4)n3Cc3ccccc32)ccc1-c1ccccc1C(F)(F)F [Example 61, 10-{[2-Methyl-2′-trifluoromethyl=[1,1′-biphenyl]-4-yl]carbonyl}-N-[2-(2-pyridinyl)ethyl]-10,11-dihydro-5H-pyrrolo[2,1-c][1,4]benzodiazepine-3-carboxamide] | – | 14%
9 | COc1cc(C(=O)N2Cc3ccc(C(=O)N4CCN(c5ccccn5)CC4)n3Cc3ccccc32)ccc1-c1cccc2ccccc12 [Example 83] | – | 22%
10 | COc1cccc(-c2ccc(C(=O)N3Cc4ccc(C(=O)NCc5ccncc5)n4Cc4ccccc43)cc2OC)c1 [Example 98] | – | 10%

Now from value to molecule, other results behind:

Row | inhibition at 0.1 µM | Compound | V2 % inhibition @ 100 nM
11 | 16% | COc1cccc(-c2ccc(C(=O)N3Cc4ccc(C(=O)NCCc5ccccn5)n4Cc4ccccc43)cc2C)c1 [Example 51, 10-[(3′-Methoxy-2-methyl-[1,1′-biphenyl]-4-yl)carbonyl]-N-[2-(2-pyridinyl)ethyl]-10,11-dihydro-5H-pyrrolo[2,1-c][1,4]benzodiazepine-3-carboxamide] | –
12 | 8% | COc1ccccc1-c1ccc(C(=O)N2Cc3ccc(C(=O)NCCc4ccccn4)n3Cc3ccccc32)cc1 [Example 52, 10-[(2′-Methoxy-[1,1′-biphenyl]-4-yl)carbonyl]-N-[2-(2-pyridinyl)ethyl]-10,11-dihydro-5H-pyrrolo[2,1-c][1,4]benzodiazepine-3-carboxamide] | –
13 | 13% | Cc1ccccc1-c1ccc(C(=O)N2Cc3ccc(C(=O)NCCc4ccccn4)n3Cc3ccccc32)cc1 [Example 53, 10-[(2′-Methyl-[1,1′-biphenyl]-4-yl)carbonyl]-N-[2-(2-pyridinyl)ethyl]-10,11-dihydro-5H-pyrrolo[2,1-c][1,4]benzodiazepine-3-carboxamide] | –
14 | 18% | COc1cc(C(=O)N2Cc3ccc(C(=O)NCCc4ccccn4)n3Cc3ccccc32)ccc1-c1ccccc1C [Example 54, 10-[(2-Methoxy-2′-methyl-[1,1′-biphenyl]-4-yl)carbonyl]-N-[2-(2-pyridinyl)ethyl]-10,11-dihydro-5H-pyrrolo[2,1-c][1,4]benzodiazepine-3-carboxamide] | –
15 | 5% | COc1cc(-c2ccccc2C)c(Cl)cc1C(=O)N1Cc2ccc(C(=O)NCCc3ccccn3)n2Cc2ccccc21 [Example 55, 10-[(6-Chloro-3-methoxy-2′-methyl-[1,1′-biphenyl]-4-yl)carbonyl]-N-[2-(2-pyridinyl)ethyl]-10,11-dihydro-5H-pyrrolo[2,1-c][1,4]benzodiazepine-3-carboxamide] | –
16 | 11% | COc1cccc(-c2cc(OC)c(C(=O)N3Cc4ccc(C(=O)NCCc5ccccn5)n4Cc4ccccc43)cc2Cl)c1 [Example 56, 10-[(6-Chloro-3,3′-dimethoxy-[1,1′-biphenyl]-4-yl)carbonyl]-N-[2-(2-pyridinyl)ethyl]-10,11-dihydro-5H-pyrrolo[2,1-c][1,4]benzodiazepine-3-carboxamide] | –
17 | 33% | COc1cc(C(=O)N2Cc3ccc(C(=O)NCCc4ccccn4)n3Cc3ccccc32)ccc1-c1cccc2ccccc12 [Example 57, 10-[3-Methoxy-4-(naphthalen-1-yl)benzoyl]-N-[2-(2-pyridinyl)ethyl]-10,11-dihydro-5H-pyrrolo[2,1-c][1,4]benzodiazepine-3-carboxamide] | –
18 | 22% | COc1ccccc1-c1ccc(C(=O)N2Cc3ccc(C(=O)NCCc4ccccn4)n3Cc3ccccc32)cc1OC [Example 58, 10-[(2,2′-Dimethoxy-[1,1′-biphenyl]-4-yl)carbonyl]-N-[2-(2-pyridinyl)ethyl]-10,11-dihydro-5H-pyrrolo[2,1-c][1,4]benzodiazepine-3-carboxamide] | –
19 | 4% | COc1cccc(-c2ccc(C(=O)N3Cc4ccc(C(=O)NCCc5ccccn5)n4Cc4ccccc43)cc2OC)c1 [Example 59, 10-[(2,3′-Dimethoxy-[1,1′-biphenyl]-4-yl)carbonyl]-N-[2-(2-pyridinyl)ethyl]-10,11-dihydro-5H-pyrrolo[2,1-c][1,4]benzodiazepine-3-carboxamide] | –
20 | 15% | O=C(NCCc1ccccn1)c1ccc2n1Cc1ccccc1N(C(=O)c1ccc(-c3cccc4ccccc34)cc1Cl)C2 [Example 60, 10-[2-Chloro-4-(naphthalen-1-yl)benzoyl]-N-[2-(2-pyridinyl)ethyl]-10,11-dihydro-5H-pyrrolo[2,1-c][1,4]benzodiazepine-3-carboxamide] | –
21 | 13% | COc1ccccc1-c1ccc(C(=O)N2Cc3ccc(C(=O)N(C)CCc4ccccn4)n3Cc3ccccc32)cc1OC [Example 64, 10-[(2,2′-Dimethoxy-[1,1′-biphenyl]-4-yl)carbonyl]-N-methyl-N-[2-(2-pyridinyl)ethyl]-10,11-dihydro-5H-pyrrolo[2,1-c][1,4]benzodiazepine-3-carboxamide] | –
